Target: hemoglobin (Homo sapiens, UniProt P68871+P69905)
Assay: Stability of hemoglobin in samples preserved at 37° C. in preservation solution containing no haptoglobin, Hb measured by latex agglutination method (Examples 8, 9 and Table 10)
Conditions: for Hb concentration / Recovery ratio with respect to Hb after 0 days: no phenylboronic acid, sugar 100 mmol/L
Procedure, shortened: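 Latex agglutination gave Hb concentration after storage at 37 °C for up to 62 h. Preservation solution (HEPES 40 mmol/L pH 6.8, BSA, NaN3, no haptoglobin) contained 0–2.5 mmol/L phenylboronic acid, some with added sugars (10–250 mmol/L). Samples held about 300 μg/L Hb, with or without 0.5% feces.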

hemoglobin, sequence (P69905 2-142): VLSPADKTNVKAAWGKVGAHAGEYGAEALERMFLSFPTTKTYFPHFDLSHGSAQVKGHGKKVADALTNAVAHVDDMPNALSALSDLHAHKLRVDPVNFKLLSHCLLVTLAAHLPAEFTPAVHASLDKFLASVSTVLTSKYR
hemoglobin, sequence (P68871 2-147): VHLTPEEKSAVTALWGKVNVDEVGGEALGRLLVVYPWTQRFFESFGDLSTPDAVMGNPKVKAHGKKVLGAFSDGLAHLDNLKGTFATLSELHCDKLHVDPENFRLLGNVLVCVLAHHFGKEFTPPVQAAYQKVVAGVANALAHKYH

Structure (SMILES): OC[C@H]1O[C@H](O[C@H]2O[C@H](CO)[C@@H](O)[C@H](O)[C@H]2O)[C@H](O)[C@@H](O)[C@@H]1O [Trehalose, trehalose]
- Hb concentration (Feces 1, 0 h at 37° C.): 268 µg/L
- Recovery ratio with respect to Hb after 0 days (Feces 1, 0 h at 37° C.): 100%
- Hb concentration (Feces 1, 16 h at 37° C.): 133 µg/L
- Recovery ratio with respect to Hb after 0 days (Feces 1, 16 h at 37° C.): 50%
- Hb concentration (Feces 1, 38 h at 37° C.): 41 µg/L
- Recovery ratio with respect to Hb after 0 days (Feces 1, 38 h at 37° C.): 15%
- Hb concentration (Feces 1, 62 h at 37° C.): 8 µg/L
- Recovery ratio with respect to Hb after 0 days (Feces 1, 62 h at 37° C.): 3%
- Hb concentration (Feces 2, 0 h at 37° C.): 254 µg/L
- Recovery ratio with respect to Hb after 0 days (Feces 2, 0 h at 37° C.): 100%
- Hb concentration (Feces 2, 16 h at 37° C.): 54 µg/L
- Recovery ratio with respect to Hb after 0 days (Feces 2, 16 h at 37° C.): 21%
- Hb concentration (Feces 2, 38 h at 37° C.): 1 µg/L
- Recovery ratio with respect to Hb after 0 days (Feces 2, 38 h at 37° C.): 0%
- Hb concentration (Feces 2, 62 h at 37° C.): 0 µg/L
- Recovery ratio with respect to Hb after 0 days (Feces 2, 62 h at 37° C.): 0%
- Hb concentration (Feces 3, 0 h at 37° C.): 260 µg/L
- Recovery ratio with respect to Hb after 0 days (Feces 3, 0 h at 37° C.): 100%
- Hb concentration (Feces 3, 16 h at 37° C.): 48 µg/L
- Recovery ratio with respect to Hb after 0 days (Feces 3, 16 h at 37° C.): 19%
- Hb concentration (Feces 3, 38 h at 37° C.): 0 µg/L
- Recovery ratio with respect to Hb after 0 days (Feces 3, 38 h at 37° C.): 0%
- Hb concentration (Feces 3, 62 h at 37° C.): 0 µg/L
- Recovery ratio with respect to Hb after 0 days (Feces 3, 62 h at 37° C.): 0%
- Hb concentration (No feces, 0 h at 37° C.): 280 µg/L
- Recovery ratio with respect to Hb after 0 days (No feces, 0 h at 37° C.): 100%
- Hb concentration (No feces, 16 h at 37° C.): 241 µg/L
- Recovery ratio with respect to Hb after 0 days (No feces, 16 h at 37° C.): 86%
- Hb concentration (No feces, 38 h at 37° C.): 228 µg/L
- Recovery ratio with respect to Hb after 0 days (No feces, 38 h at 37° C.): 81%
- Hb concentration (No feces, 62 h at 37° C.): 219 µg/L
- Recovery ratio with respect to Hb after 0 days (No feces, 62 h at 37° C.): 78%
- recovery ratio of hemoglobin in the sample (sugar further added to phenylboronic acid 0.5 mmol/L, no haptoglobin, Feces 1, Feces 2, Feces 3): further improved

From patent publication US12215140B2, “Method of stabilizing protein contained in specimen and solution for stabilizing protein contained in specimen” (EIKEN KAGAKU KABUSHIKI KAISHA, priority 2018, dated 2025)
